Source: patent publication US20120322819A1, “COMPOUND CONTAINING A NOVEL 4-ALKOXYPYRIMIDINE STRUCTURE AND MEDICINE CONTAINING SAME” (KOWA COMPANY, LTD., priority 2010, published 2012)

Experiments:
[1] = molecular target: T1, angiotensin II type 1 receptor (Oryctolagus cuniculus, UniProt P34976); assay: Angiotensin II antagonistic activity in isolated rabbit blood vessels (angiotensin II-induced contraction of thoracic aorta ring); settings: angiotensin II (10 nM)-induced contraction, compound 1 nmol/L to 10 μmol/L, 37° C., read-out: IC50 (50% inhibition concentration of angiotensin II-induced contraction)
T1 construct: By using a specimen of isolated rabbit blood vessels; from tissue; host or cells: rabbit thoracic aorta ring (New Zealand White, male)
T1 sequence (P34976 1-359): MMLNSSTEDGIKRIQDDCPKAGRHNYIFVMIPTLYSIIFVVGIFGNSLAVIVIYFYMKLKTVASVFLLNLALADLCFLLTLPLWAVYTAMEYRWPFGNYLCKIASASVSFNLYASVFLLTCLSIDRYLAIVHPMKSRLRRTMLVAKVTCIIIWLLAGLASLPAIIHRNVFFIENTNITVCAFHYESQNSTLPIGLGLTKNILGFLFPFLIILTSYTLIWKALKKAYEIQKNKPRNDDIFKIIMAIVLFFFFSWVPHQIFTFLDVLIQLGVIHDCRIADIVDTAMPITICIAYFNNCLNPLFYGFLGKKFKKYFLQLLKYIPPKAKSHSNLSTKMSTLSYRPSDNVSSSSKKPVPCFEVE
Description: Angiotensin II Antagonistic Activity in Isolated Rabbit Blood Vessels
By using a specimen of isolated rabbit blood vessels, antagonistic activity of the compounds of the invention against angiotensin II type 1 receptor was estimated from a dose-response curve of angiotensin II-induced blood vessel contraction. Specifically, the specimen of thoracic aorta ring of a rabbit (New Zealand White: male, 2.4 to 3.0 kg) was suspended in a magnus bath filled with Krebs-Henseleite buffer (composition: 118 mM NaCl, 4.7 mM KCl, 2.55 mM CaCl2, 1.18 mM MgSO4, 1.18 mM KH2PO4, 24.88 mM NaHCO3, and 11.1 mM D-glucose), and angiotensin II (10 nM)-induced contraction was obtained in the presence of the compounds of each example (1 nmol/L to 10 μmol/L). During the measurement, the inside temperature of the magnus bath was maintained at 37° C. and the bath was continuously ventilated with a sufficient amount of mixed gas (95% O2 and 5% CO2). The angiotensin II-induced contraction was converted into a relative value (%) that is based on the angiotensin II (10 nM)—induced contraction in the absence of the compounds of each example. From the concentration-response curve obtained therefrom, 50% inhibition concentration (IC50 value) was calculated by using SAS Preclinical Package Ver 5.0 (trade name, manufactured by SAS institute Japan Co., Tokyo, Japan), which is a statistical analysis program.

[2] = molecular target: T2, human PPARγ2 (Homo sapiens, UniProt P37231); assay: PPARγ activation activity, Gal4-PPARγ2 LBD chimera luciferase transfection assay in COST cells; type: cell-based; settings: Gal4 (aa 1-147)/human PPARγ2 LBD (aa 182-505) chimera, luciferase reporter, 16 hours, rosiglitazone (3 to 10 μmol/L) = 100%, read-out: EC50 (50% effective concentration, PPARγ activation)
T2 construct: the amino acids 182 to 505 of human PPARγ2; expressed in transfected cells; host or cells: COST cells (so in the source)
T2 sequence (P37231 182-505): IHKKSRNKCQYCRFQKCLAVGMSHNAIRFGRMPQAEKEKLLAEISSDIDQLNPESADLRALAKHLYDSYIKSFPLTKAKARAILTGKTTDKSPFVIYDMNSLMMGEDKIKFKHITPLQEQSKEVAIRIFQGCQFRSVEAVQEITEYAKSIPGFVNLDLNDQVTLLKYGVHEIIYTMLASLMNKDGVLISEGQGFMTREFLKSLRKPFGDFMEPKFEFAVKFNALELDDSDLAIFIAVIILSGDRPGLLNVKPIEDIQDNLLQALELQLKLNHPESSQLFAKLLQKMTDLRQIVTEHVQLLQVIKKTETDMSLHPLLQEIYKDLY
Protocol: PPARγ Activation Activity
The agonistic activity of the compounds of the invention on PPARγ was measured based on the transfection assay using COST cells (DS Pharma Biomedical Co., Ltd., Osaka, Japan), which are the cell line derived from the kidney of the African green monkey. COST cells were cultured under 5% CO2 concentration, and DMEM medium containing 10% fetal bovine serum, glutamic acid, and antibiotics was used as a medium.
As an expression vector, a chimera in which DNA binding domain of Ga14, which is a yeast transcription factor, and ligand binding domain of human PPARγ2 are fused, i.e., a fused product between the amino acids 1 to 147 of Gal4 transcription factor and the amino acids 182 to 505 of human PPARγ2, was used. Furthermore, as a reporter vector, a firefly luciferase containing five copies of Gal4 recognition sequence in the promoter region was used. Plasmid transfection to the cells was performed according to a method which uses jetPEI (trade name, manufactured by Funakoshi Co., Ltd., Tokyo, Japan). Furthermore, β-galactosidase expression vector was employed as an internal standard.
After the transfection of the cells, the medium was replaced with a DMEM medium (containing 1% serum) added with the test compound, and the cells were further cultured for 16 hours. After that, the luciferase activity and β-galactosidase activity in the cell lysis solution were measured.
For the present test, dimethylsulfoxide (DMSO) was used for dissolution and dilution of the test compounds, and during the cell treatment, the DMSO concentration in DMEM medium (containing 1% serum) was adjusted to 0.1%. As a positive compound, rosiglitazone (trade name, manufactured by ALEXIS Corporation, Switzerland) was used. The percentage (%) of the luciferase activity of the each test compound (1 to 30 μmol/L) was calculated when the luciferase activity of rosiglitazone (3 to 10 μmol/L) is 100% and the luciferase activity in the absence of the test compound is 0%. The 50% effective concentration of the test compound (EC50, 50% effect concentration) was calculated by using SAS Preclinical Package Ver 5.0 (trade name, manufactured by SAS institute Japan Co., Tokyo, Japan), which is a statistical analysis program.

| SMILES | IC50 [1] | EC50 [2] |
| --- | --- | --- |
| CCCCc1nc(C)nc(OCC(=O)OCC)c1Cc1ccc(-c2ccccc2-c2noc(=O)[nH]2)cc1 [Example 1, ethyl 2-{{6-butyl-2-methyl-5-{[2′-(5-oxo-4,5-dihydro-1,2,4-oxadiazol-3-yl)-[1,1′-biphenyl]-4-yl]methyl}pyrimidin-4-yl}oxy}acetate] | 810 nM | 1050 nM |
| CCCCc1nc(C)nc(OCC(=O)O)c1Cc1ccc(-c2ccccc2-c2noc(=O)[nH]2)cc1 [Example 2, 2-{{6-butyl-2-methyl-5-{[2′-(5-oxo-4,5-dihydro-1,2,4-oxadiazol-3-yl)-[1,1′-biphenyl]-4-yl]methyl}pyrimidin-4-yl}oxy}acetic acid] | 230 nM |  |
| CCCCc1nc(C)nc(OCC(=O)NCC)c1Cc1ccc(-c2ccccc2-c2noc(=O)[nH]2)cc1 [Example 4, 2-{{6-butyl-2-methyl-5-{[2′-(5-oxo-4,5-dihydro-1,2,4-oxadiazol-3-yl)-[1,1′-biphenyl]-4-yl]methyl}pyrimidin-4-yl}oxy}-N-ethylacetamide] | 290 nM |  |
| CCCCc1nc(C)nc(OCC(=O)N(CC)CC)c1Cc1ccc(-c2ccccc2-c2noc(=O)[nH]2)cc1 [Example 5, 2-{{6-butyl-2-methyl-5-{[2′-(5-oxo-4,5-dihydro-1,2,4-oxadiazol-3-yl)-[1,1′-biphenyl]-4-yl]methyl}pyrimidin-4-yl}oxy}-N,N-diethylacetamide] | 60 nM |  |
| CCCCc1nc(C)nc(OCCCC(=O)OCC)c1Cc1ccc(-c2ccccc2-c2noc(=O)[nH]2)cc1 [Example 6, ethyl 4-{{6-butyl-2-methyl-5-{[2′-(5-oxo-4,5-dihydro-1,2,4-oxadiazol-3-yl)-[1,1′-biphenyl]-4-yl]methyl}pyrimidin-4-yl}oxy}butanoate] | 130 nM | 870 nM |
| CCCCc1nc(C)nc(OCCO)c1Cc1ccc(-c2ccccc2-c2noc(=O)[nH]2)cc1 [Example 15, 3-{4′-{[4-butyl-6-(2-hydroxyethoxy)-2-methylpyrimidin-5-yl]methyl}-[1,1′-biphenyl]-2-yl}-1,2,4-oxadiazol-5(4H)-one] | 770 nM | 1320 nM |
| CCCCc1nc(C)nc(OCCOC)c1Cc1ccc(-c2ccccc2-c2noc(=O)[nH]2)cc1 [Example 33, 3-{4′-{[4-butyl-6-(2-methoxyethoxy)-2-methylpyrimidin-5-yl]methyl}-[1,1′-biphenyl]-2-yl}-1,2,4-oxadiazol-5(4H)-one] | 480 nM | 920 nM |

More lines, in order of falling IC50 [1], values ahead:

| IC50 [1] | EC50 [2] | SMILES |
| --- | --- | --- |
| 640 nM |  | CCCCc1nc(C)nc(OC(Cc2ccccc2)C(=O)O)c1Cc1ccc(-c2ccccc2-c2noc(=O)[nH]2)cc1 (stereo not drawn) [Example 28, 2-{{6-butyl-2-methyl-5-{[2′-(5-oxo-4,5-dihydro-1,2,4-oxadiazol-3-yl)-[1,1′-biphenyl]-4-yl]methyl}pyrimidin-4-yl}oxy}-3-phenylpropionic acid] |
| 380 nM | 2920 nM | CCCCc1nc(C)nc(OC(C(=O)O)c2ccccc2)c1Cc1ccc(-c2ccccc2-c2noc(=O)[nH]2)cc1 (stereo not drawn) [Example 26, 2-{{6-butyl-2-methyl-5-{[2′-(5-oxo-4,5-dihydro-1,2,4-oxadiazol-3-yl)-[1,1-biphenyl]-4-yl]methyl}pyrimidin-4-yl}oxy}-2-phenylacetic acid] |
| 230 nM | 1210 nM | CCCCc1nc(C)nc(OCC(=O)N2CCCCC2)c1Cc1ccc(-c2ccccc2-c2noc(=O)[nH]2)cc1 [Example 30] |
| 100 nM | 950 nM | CCCCc1nc(C)nc(OCC(C)=O)c1Cc1ccc(-c2ccccc2-c2noc(=O)[nH]2)cc1 [Example 22, 3-{4′-{[4-butyl-2-methyl-6-(2-oxopropoxy)pyrimidin-5-yl]methyl}-[1,1′-biphenyl]-2-yl}-1,2,4-oxadiazol-5(4H)-one] |
